Measured values from patent US8946382B2, “Apelin peptides and methods of use” (The United States of America, as represented by the …, priority 2009, dated 2015).
“Also recorded” adds a separate entry of the source. Where no end group is shown, it is not given here. The star is where a group is joined. Biotin = O=C1N[C@H]2[C@H](CS[C@H]2CCCCC(=O)*)N1

Legend:
[1] = test system: human blood vessel endothelial (HMEC-1) cells; test: Proliferation assay (ATPLITE), HMEC-1; assay type: cell-based; conditions: FIGS. 3E, 3F, 6
Text: (§1) Proliferation response profiles of apelin, salcut-NH2, salcut-Gly, and/or salcut-OH on a variety of endothelial and tumor cell lines or primary endothelial cells were obtained using the following method. Human blood vessel endothelial cells (HMEC-1), human primary microvascular dermal EC (dB1), human lymphatic endothelial cells (LEC), human mast cells (HMC-1), human breast cancer cells (MCF-7; T47D), human gastric cancer cells (HTB 103), human lung cancer cells (A549), monkey endothelial cells (CRL 1780), and porcine aortic endothelial cells (PAE) were seeded at 25,000 cells per well at 50 μl volume in appropriate media containing 0.5% serum in a 96 well plate. After overnight incubation the peptide was added in serum free media and cells were incubated for 3-5 days. To measure growth proliferation, the adenosine triphosphate ATPLITE™ one-step assay (PerkinElmer), which is based on firefly luciferase and has high sensitivity for quantification of viable cells, was used. Data were expressed as mean plus minus standard deviation. Statistical analyses were performed using Student's t-test, p values less than 0.05 were considered statistically significant.
Endothelial cell proliferation assays were performed as described above with both spontaneously immortalized porcine aortic endothelial (PAE) cells and SV40 immortalized human dermal microvascular endothelial (HMEC-1).

[2] = test system: endothelial and tumor cell lines or primary endothelial cells; test: Proliferation response (ATPLITE one-step assay) on a variety of endothelial and tumor cell lines; assay type: cell-based; conditions: 3E
Text: as §1

[3] = test system: human gastric cancer cell line HTB-103; test: Proliferation assay (ATPLITE), HTB 103; assay type: cell-based; conditions: FIG. 5
Text: as §1

MDA-MB-345 cells = test: Binding of biotinylated salcut-NH2 to cells (fluorescent labeling); assay type: cell-based, human
[4] = test system: human breast cancer cell line MCF-7; test: Proliferation assay (ATPLITE), MCF-7; assay type: cell-based; conditions: 1 nM to 1 μM dose range; FIG. 4A
Text: as §1

[5] = test system: human breast cancer cell line MDA-MB-435; test: Proliferation assay, MDA-MB-435; assay type: cell-based; conditions: for proliferative response over dose range: dose range of 1 nM to 1 uM; for relative potency in proliferation assays: salcut-NH2 of two manufacturers vs biotinylated salcut, FIG. 14A-14C
Text: An N-terminal biotinylated salcut-NH2 ligand was synthesized (a single biotin moiety was attached to the amino-terminal leucine residue). Validity of the chemical composition of the biotinylated salcut-NH2 was accomplished using amino acid sequence analysis and MADLI-TOF mass spectrometry characterization.

[6] = test system: A549 human bronchioloalveolar cancer cells; test: Nude mouse xenograft study; assay type: in vivo, nude mice; conditions: 10 μM
Method: (§2) Six week old female nude mice were used in this study; ten mice were used per test group. A549 human bronchioloalveolar cancer cells were cultured at the SAIC/Frederick facility. 1×10^7 A549 cells were injected subcutaneously in the hindquarter of each nude mouse. The following treatment regime was started seven days following tumor injection: Group 1—PBS control; Group 2—salcut-NH2 peptide (10 μM). Appropriate Groups were treated with 25 μl injections at four corners around the tumor, three times per week for five weeks. Mice were inspected, weighed, and tumors measured (H×W×L) three times per week with calipers. Following completion of the experiment, mice were euthanized, tumors excised, and cut into four pieces. Two segments were frozen and stored at −80° C. and two segments were paraffin embedded for pathology.
as §2, with “In another experiment, six” for “Six”, “(10 pM); Group 3—salcut-NH2 peptide (10 nM); Group 4—salcut-NH2 peptide (10” for “(10”, “100” for “25”, “intraperitoneally,” for “at four corners around the tumor,”, “four” for “five”

[7] = test system: human mast cell line HMC-1; test: Proliferation assay (ATPLITE), HMC-1; assay type: cell-based; conditions: FIG. 5
Text: as §1

[8] = test system: porcine aortic endothelial (PAE) cells; test: In vitro tube formation assay; assay type: cell-based
Method: Porcine aortic endothelial (PAE) cells were stably transfected with Green Fluorescent Protein (GFP) and seeded at a concentration of 18,000 cells per well of a 96-well culture plate. The wells were coated with […] basement membrane matrix (Invitrogen, CA). Cells were resuspended in medium at a concentration of 2.25×10^5 to 2.5×10^5 cells/ml. An […] (18,000-20,000) cells were added per well. Positive control cells were cultured with medium supplemented with 1.0% fetal bovine serum (FBS). Negative control cells were cultured with serum-free medium. […] After three or more hours of incubation, cells were assessed for tube formation and were photographed. Assays were performed in triplicate.

[9] = test system: human lung cancer cell line A549; test: Proliferation assay (ATPLITE), A549; assay type: cell-based
Text: as §1

rat aortic ring = test: Rat aortic ring assay (vessel outcropping); assay type: cell-based
Method: On day 0, rats were euthanized and decapitated, and aortas were harvested and transferred to a culture dish containing EGM-2 with growth factors (20 ml media; Clonetics). Fibroadipose tissue and other non-aortic tissue were removed. Using dissecting microscope, the aorta was sectioned into 1 mm-long rings. Aortic rings were then rinsed 6-8× with EGM-2 with growth factors. Aortic rings were each placed in the center of a matrix (GELTREX™; Invitrogen Corp)-coated culture well. Aortic tissue was covered with 250 μl GELTREX™ and each well was incubated with 1 ml EGM-2 with growth factors supplemented for 24 hours at 37° C., 5% CO2.
On day 1, media with growth factors was removed, 250 μl of media (without growth factors) with either 0.1 nM, 1.0 nM, or 10 nM of salcut-NH2 was added to each well and incubated at 37° C., 5% CO2 for 5-7 days.

APJ receptor = biological target: T1, APJ receptor (Homo sapiens, UniProt P35414); conditions: cited from earlier work
T1 sequence (P35414 1-380): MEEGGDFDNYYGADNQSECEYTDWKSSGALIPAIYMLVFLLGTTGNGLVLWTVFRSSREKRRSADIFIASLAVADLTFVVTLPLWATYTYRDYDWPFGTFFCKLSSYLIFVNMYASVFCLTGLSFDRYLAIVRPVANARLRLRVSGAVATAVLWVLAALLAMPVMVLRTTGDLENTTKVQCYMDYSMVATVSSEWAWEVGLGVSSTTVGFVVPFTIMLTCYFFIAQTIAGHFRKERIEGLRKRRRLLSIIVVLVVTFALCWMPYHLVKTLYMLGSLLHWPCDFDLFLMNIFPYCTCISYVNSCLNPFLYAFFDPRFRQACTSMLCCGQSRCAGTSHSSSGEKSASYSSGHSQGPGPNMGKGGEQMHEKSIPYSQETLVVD

[10] = biological target: T2, apelin G protein receptor (known as APJ) (Homo sapiens, UniProt P35414); conditions: Tatemoto et al. 1998; cited from earlier work
T2 sequence (P35414 1-380): T1 sequence (P35414 1-380)

**Q.** What does the source list for “salcut-Gly: glycine-extended form of human apelin-36 (42-57) (LVQPRGSRNGPGPWQGG; homo sapiens)”?
**A.** effect on HMEC-1 proliferation [1]: non-responsive over the dose range tested; also recorded: minor effect on proliferation; also recorded: do not have a statistically significant effect on cell growth; effect on HMEC-1 proliferation ([1]; listed as salcut Gly): no effect on HMEC-1 cell proliferation

**Q.** Which “effect on HMEC-1 proliferation” value [1] does the source give for “salcut-NH2: amide derivative of human apelin-36 (42-57), sixteen amino acid peptide from residues 42-57 of apelin preproprotein (LVQPRGSRNGPGPWQG-NH2)” here?
**A.** Its value is “biphasic response curve; also recorded: potent stimulators of HMEC-1 proliferation; also recorded: biphasic (rise and fall) response”.

**Q.** And the “concentration having a suppressive effect on cell proliferation” value ([2]; FIGS. 3A-3D, 3G, 3I-3O)?
**A.** Its value is at least 10 nM.

**Q.** What about the “cell proliferation (relative luminescent units [RLU])” value ([2]; compared to cells cultured in the absence of these compounds (0 Rx), FIGS. 3A-3C, 3G-3O) of the same substance?
**A.** Its value is “increases”.

**Q.** What about the proliferative dose response [3] of the same substance?
**A.** Its proliferative dose response is “biphasic response curves; also recorded: biphasic (rise and fall) response”.

**Q.** And the “inhibition of binding of biotinylated salcut-NH2 to cells” value (MDA-MB-345 cells; unlabeled peptide in the presence of biotinylated salcut-NH2)?
**A.** The value was “can be inhibited”.

**Q.** And the proliferative dose response [4]?
**A.** The proliferative dose response was “biphasic response curve; also recorded: biphasic (rise and fall) response”.

**Q.** What about the “proliferative response over dose range” value [5] of the same substance?
**A.** The value was “large change in response”.

**Q.** What about the “relative potency in proliferation assays” value [5] of the same substance?
**A.** Its value is “equipotent in proliferation assays”.

**Q.** What about the tumor growth ([6]; 10 pM, 10 nM, 100 μl intraperitoneally, three times per week for four weeks, compared to PBS, FIG. 12) of the same substance?
**A.** The tumor growth was “reduced tumor growth”.

**Q.** And the tumor growth ([6]; 25 μl injections at four corners around the tumor, three times per week for five weeks, compared to PBS)?
**A.** Its tumor growth is “dramatic reduction in tumor growth”.

**Q.** And the tumor growth ([6]; 100 μl intraperitoneally, three times per week for four weeks)?
**A.** The tumor growth was “highly statistically significant (<0.005) suppression of tumor growth”.

**Q.** What about the proliferative dose response [7] of the same substance?
**A.** The proliferative dose response was “biphasic response curves; also recorded: only responded to lower concentrations of salcut-NH2 by stimulating proliferation”.

**Q.** What about the “concentration at which a suppressive effect on tube formation was observed” value [8] of the same substance?
**A.** Its value is “exceeding 10 nM”.

**Q.** And the “effect on proliferation (stimulation)” value ([9]; 10 nM to 100 pM range, FIG. 3D)?
**A.** The value was “neither apelin-13 (65-77) nor salcut-NH2 affect proliferation; also recorded: does not stimulate proliferation”.

**Q.** What about the “effect on proliferation at higher concentrations” value ([9]; higher concentrations, 1 nM to 1 μM dose range (FIG. 4B)) of the same substance?
**A.** The value was “lack of a statistically significant proliferative response; also recorded: cell growth suppressive effect at higher concentrations; also recorded: did not respond in a statistically significant manner”.

**Q.** What about the “number of vessels forming from the aortic ring” value (rat aortic ring; 0.1 nM, 1.0 nM, 10 nM, 5-7 days, FIG. 9) of the same substance?
**A.** The value was “number of vessels formed increase with increasing concentration; also recorded: increased number of vessels forming from the aortic ring”.

**Q.** And the “vessel formation within the aortic ring” value (rat aortic ring; 10 nM dose)?
**A.** The value was “Vessels begin to form with the ring; also recorded: vessels were beginning to form within the aortic ring”.

**Q.** For apelin-17, which “binding to the APJ receptor” value (APJ receptor) is on record?
**A.** The value was “can bind the APJ receptor”.

**Q.** What about the “potency of peptide-induced acidification rates” value [10] of the same substance?
**A.** The value was “moderately potent”.

**Q.** What does the source list for “salcut-OH: human apelin-36 (42-57), the free-acid derivative of salcut (LVQPRGSRNGPGPWQG-OH)”?
**A.** effect on HMEC-1 proliferation [1]: minor effect on proliferation; also recorded: do not have a statistically significant effect on cell growth; effect on HMEC-1 proliferation ([1]; listed as Salcut-OH): non-responsive over the dose range tested; effect on HMEC-1 proliferation ([1]; listed as salcut OH): no effect on HMEC-1 cell proliferation

**Q.** With “biotinylated salcut: N-terminal biotinylated salcut-NH2 ligand; a single biotin moiety attached to the amino-terminal leucine residue (Biotin-LVQPRGSRNGPGPWQG-NH2; SMILES CC(C)C[C@H](NC(=O)CCCC[C@@H]1SC[C@@H]2NC(=O)N[C@@H]21)C(=O)N[C@H](C(=O)N[C@@H](CCC(N)=O)C(=O)N1CCC[C@H]1C(=O)N[C@@H](CCCNC(=N)N)C(=O)NCC(=O)N[C@@H](CO)C(=O)N[C@@H](CCCNC(=N)N)C(=O)N[C@@H](CC(N)=O)C(=O)NCC(=O)N1CCC[C@H]1C(=O)NCC(=O)N1CCC[C@H]1C(=O)N[C@@H](Cc1c[nH]c2ccccc12)C(=O)N[C@@H](CCC(N)=O)C(=O)NCC(N)=O)C(C)C)” as the substance, how does the “binding to cells (fluorescent labeling)” value (MDA-MB-345 cells) read?
**A.** The value was “high intensity fluorescent labeling”.

**Q.** And the “proliferative response over dose range” value [5]?
**A.** The value was “large change in response”.

**Q.** And the “relative potency in proliferation assays” value [5]?
**A.** Its value is “equipotent in proliferation assays”.

**Q.** With (Ala13)-apelin-13 [reference compound] as the substance, how does the “effect of antagonist on endothelial cell tube formation” value ([8]; in the presence of 1 nM apelin-13, FIG. 8) read?
**A.** Its value is “inhibited endothelial cell tube formation”.
